Measured values published in ChEMBL document CHEMBL5500426, “Directly Suppressing MYC Function with Novel Alkynyl-Substituted Phenylpyrazole Derivatives that Induce Protein Degradation and Perturb MYC/MAX Interaction” (J Med Chem, 2024).

Columns and labels:
SK-N-BE(2) = experiment: Antiproliferative activity against human SK-N-BE(2) cells assessed as inhibition of cell growth incubated for 72 hrs by MTT assay; type: functional, cell-based; settings: SKNBE2, 72 h
[1] = Toxicity in FVB mouse implanted with mouse Myc-CaP cells assessed as body weight loss at 10 to 50 mg/kg,ip administrated daily for 14 consecutive days; type: organism-based; settings: in vivo, dose 10-50 mg/kg
SK-OV-3 = experiment: Antiproliferative activity against human SK-OV-3 cells assessed as inhibition of cell growth incubated for 72 hrs by MTT assay; type: functional, cell-based; settings: SK-OV-3, 72 h
[2] = Toxicity in BALB/C mouse xenografted with human PC-3 cells assessed as histopathological change in kidney at 50 to 100 mg/kg,ip administrated daily for 21 consecutive days by hematoxylin and eosin staining based microscopic analysis; type: organism-based; settings: in vivo, dose 50-100 mg/kg
[3] = Toxicity in FVB mouse implanted with mouse Myc-CaP cells assessed as histopathological change in kidney at 10 to 50 mg/kg,ip administrated daily for 14 consecutive days by hematoxylin and eosin staining based microscopic analysis; type: organism-based; settings: in vivo, dose 10-50 mg/kg
MDA-MB-231 = experiment: Antiproliferative activity against human MDA-MB-231 cells assessed as inhibition of cell growth incubated for 72 hrs by MTT assay; type: functional, cell-based; settings: MDA-MB-231, 72 h
[4] = Half life in Sprague-Dawley rat at 10 mg/kg,ip administration by LC-MS/MS analysis; type: ADME, organism-based; settings: in vivo
PC-3 = experiment: Antitumor activity against human PC-3 cells xenografted in BALB/C mouse assessed as tumor growth inhibition at 50 mg/kg,ip administrated daily for 21 consecutive days relative to control; type: functional; settings: read-out: TGI
Myc-CaP [5] = experiment: Antitumor activity against mouse Myc-CaP cells implanted in FVB mouse assessed as reduction in tumor weight at ip administrated daily for 14 consecutive days; type: functional, organism-based
[6] = Toxicity in FVB mouse implanted with mouse Myc-CaP cells assessed as histopathological change in spleen at 10 to 50 mg/kg,ip administrated daily for 14 consecutive days by hematoxylin and eosin staining based microscopic analysis; type: organism-based; settings: in vivo, dose 10-50 mg/kg
[7] = Toxicity in FVB mouse implanted with mouse Myc-CaP cells assessed as histopathological change in lung at 10 to 50 mg/kg,ip administrated daily for 14 consecutive days by hematoxylin and eosin staining based microscopic analysis; type: organism-based; settings: in vivo, dose 10-50 mg/kg
[8] = Volume of distribution at steady state in Sprague-Dawley rat at 2 mg/kg,iv administration by LC-MS/MS analysis; type: ADME, organism-based; settings: in vivo, read-out: Vdss
Myc-CaP [9] = experiment: Antitumor activity against mouse Myc-CaP cells implanted in FVB mouse assessed as tumor growth inhibition at 10 mg/kg,ip administrated daily for 14 consecutive days relative to control; type: functional; settings: read-out: TGI

For `Oc1c(-c2cc(C(F)(F)F)n[nH]2)ccc(C#CCCN2CCOCC2)c1-c1ccc(Cl)c(C(F)(F)F)c1`, which IC50 (SK-N-BE(2)) is on record?
The IC50 was 1.25 µM.

And the Activity [1]?
Its Activity is “Non-Toxic”.

What about the IC50 (SK-OV-3) of the same compound?
Its IC50 is 1.25 µM.

And the Activity [2]?
Its Activity is “Non-Toxic”.

What about the Activity [3] of the same compound?
Its Activity is “Non-Toxic”.

And the IC50 (MDA-MB-231)?
Its IC50 is 1.35 µM.

And the half-life [4]?
Its half-life is 5.97 h.

What about the inhibition in vivo at 50 mg/kg (PC-3) of the same compound?
The inhibition in vivo at 50 mg/kg was 33%.

What about the Activity (Myc-CaP [5]) of the same compound?
Its Activity is “Dose-Dependent Effect”.

And the Activity [6]?
Its Activity is “Non-Toxic”.

And the Activity [7]?
The Activity was “Non-Toxic”.

And the Vd [8]?
The Vd was 6.41 L/kg.

What about the inhibition in vivo at 10 mg/kg (Myc-CaP [9]) of the same compound?
The inhibition in vivo at 10 mg/kg was 37%.
